Results published in US4895937A, “5-ioso-2-pyrimidinone nucleoside” (The Research Foundation of State University of New York, priority 1988, dated 1990).
Where two headings read alike, the source gives them in different places.

Tests used:
HSV-1 = assay: Viral inhibition, HSV-1 (Example 7, method of Example 5); assay type: cell-based, herpes simplex type 1; settings: Human alphaherpesvirus 1
Experimental: (§1) In accordance with the present invention, 1-(2-Deoxy-β-D-ribofuranosyl)-5-(methylmercapto)-2-pyrimidinone is prepared essentially in accordance with the procedure set forth in "Snythesis and Antiviral Activity of 1-(2-Deoxy-β-D-ribofuranosyl)-5-(methylmercapto)-2-pyrimidinone" by Schroeder and Bardos and Cheng, Volume 24, page 109, January 1981. HeLa cells were infected in 1640 RPMI medium with herpes simplex type 1 (HSV-1) and independently with herpes simplex type 2 (HSV-2) virus at a multiplicity of 5 to 10 plaque forming units per cell. The composition of 1640 RPMI medium is reported in "Biological Activity of 5 Ethyl, 5 Propyl, and 5 Vinyl 2'-Deoxyuridine" by Cheng et al published in Antimicrobial Agents and Chemotherapy, Volume 10, beginning at page 119 (1976). 1640 RPMI medium is commercially available from Gibco Company, Grand Island, N.Y. After 1 hour, virus absorption, the drugs were added. Resulting cultures were analyzed for virus titer at 24 hours post infection a described in the procedure set forth in "Biological Activity of 5-Ethyl, 5-Propyl and 5-Vinyl 2'-uridine" by Cheng et al. The results are set forth in Table 2. The numbers set forth in Table 2 show the number of plaque forming units in the control which contained no methylmercapto compound and the number of units at concentrations of 100, 200 and 400 micromoles of the methylmercapto compound. The results clearly indicate substantial decrease in the number of plaque forming units in the presence of 1-(2-Deoxy-β-D-ribofuranosyl)-5-(methylmercapto)-2-pyrimidinone.
(§2) The above described methyl compound was tested for viral inhibition substantially in accordance with the method of Example 5 except that the concentrations were 50 and 100 micromolar.

HSV-2 = assay: Viral inhibition, HSV-2 (Example 7, method of Example 5); assay type: cell-based, herpes simplex type 2; settings: Human alphaherpesvirus 2
Experimental: as §1, §2

murine leukemia L 1210 = settings: cited from earlier work
virus = settings: literature; cited from earlier work
HSV-1 (KOS) = assay: Antiherpes activity, HSV-1 (KOS) (Example 10); assay type: cell-based
Experimental: (§3) IPdR and 5-bromo-2-pyrimidinone-2-deoxyribonucleoside (BrPdR) were tested for antiherpes activity according to procedures described by Cheng, Y.-C., et al. Antimicrob. Agents Chemother (1976) 10, 119.

PFA-resistant strains = assay: Antiherpes activity, PFA-resistant strain (Example 10); assay type: cell-based; settings: 5 μM; read-out: plaque-forming units as % of control
Experimental: as §3

[1] = system: ACG (Tr7), acyclovir resistant strain of HSV1; assay: Antiherpes activity, acyclovir resistant strain of HSV1 (Tr7) (Example 10); assay type: cell-based, HSV-1; settings: Human alphaherpesvirus 1, read-out: plaque-forming units as % of control
Experimental: as §3

HSV-1 (CLl0l) = assay: Antiherpes activity, HSV-1 (CLl0l) (Example 10); assay type: cell-based
Experimental: as §3

[2] = system: ACG (S1), acyclovir resistant strain of HSV1; assay: Antiherpes activity, acyclovir resistant strain of HSV1 (S1) (Example 10); assay type: cell-based, HSV-1; settings: Human alphaherpesvirus 1, read-out: plaque-forming units as % of control
Experimental: as §3

[3] = system: BVdU resistant strain of HSV-1; assay: Antiherpes activity, BVdU resistant strain (Example 10); assay type: cell-based; settings: Human alphaherpesvirus 1, read-out: plaque-forming units as % of control
Experimental: as §3

HSV-2 (333) = assay: Antiherpes activity, HSV-2 (333) (Example 10); assay type: cell-based
Experimental: as §3

[4] = system: HSV-1 and HSV-2 strains (herpes virus group); assay: Antiherpes activity, overall statement; assay type: cell-based
Experimental: as §3

HSV-2 (CEU-G) = assay: Antiherpes activity, HSV-2 (CEU-G) (Example 10); assay type: cell-based; settings: Human alphaherpesvirus 2, read-out: plaque-forming units as % of control
Experimental: as §3

HSV-2 (Strain 333) [5] = assay: Antiviral activity in HSV-2 infected mice by various routes (Example 9); assay type: in vivo, Swiss-Webster female mice; settings: for % ILS: excluding 45 day survivors
Experimental: The drugs were administered once a day for five days or twice daily (12 hour intervals) for 2.5 days beginning 24 hours postinfection. Mean body weight determinations of drug treated and control animals were made during the treatment period as an indicator of sublethal toxicity. Deaths were recorded through day 45.

host cell = settings: literature, Oftebro et al., Oyen et al.; cited from earlier work
[6] = system: human nasopharyngeal carcinoma KB cells; assay: Cytotoxicity / cell proliferation in KB cells (Example 8 Part B); assay type: cell-based
Experimental: (§4) To compare the toxicity of FPdR and IPdR human nasopharyngeal carcinoma KB cells obtained from the American Type Culture Collection were maintained as a monolayer in RPMI 1640 supplemented with 5% fetal bovine serum, 10 mM HEPES buffer (pH 7.4) and karamycin (100 μg/ml). Cells were maintained at 37° C. in a humidified atmosphere of 5% CO2 in air. Cell numbers were determined with an electronic particle counter (Particle Data, Inc., Elmhurst, Ill.).
(§5) For determination of drug effect on cell proliferation, cells were harvested from rapidly proliferting cultures by treatment with pancreation. Cell number was determined and plated in 24 well (6 mm well diameter) plates at a concentratin of 5×10^3 cells/ml. Drug exposures were initiated by a complete change of medium after overnight incubation. Following a 72 hour drug exposure […]. of thiazolyl blue was added and incubated for a further 4 hour period. The media from the plates was aspirated completely and […] DMSO was added to each well. The plates were placed on a shaker for 5 minutes and the blue solution transferred to 96 well plates and read at 540 nm with a scanning multiwell spectrophotometer (Biotek Instruments, Inc. Burlington, Vt.).

[7] = as above; assay type: cell-based, human; settings: human, kb cells, 72 hour exposure
Experimental: as §4, §5

HSV-2 (strain 333) [8] = assay: Antiviral activity, HSV-2 plaque reduction (Example 8 Part A); assay type: cell-based
Experimental: The effects of 1-(2-Deoxy-β-D-ribofuranosyl)-5-iodo-2-pyrimidinone (IPdR) of Example 3 were compared with 1-(2-Deoxy-β-D-ribofuranosyl)-5-fluoro-2-pyrimidinone (FPdR) on HSV-2 (strain 333) in […]. Twenty four well plates (sterile) were plated with 10^6 Vero cells/well the day before infecting. 250 PFU of HSV-2 were used in each well. The test compounds, IPdR and FPdR, were added at zero times of post infection and the cultures incubated at 37° C. for 48 hours. At the end of the incubation period the media was removed from Vero cells. Plates were strained with 0.8% crystal violet in 50% ethanol for 15 minutes. The plaque was counted.

[9] = intravenous injection; cited from earlier work
[10] = system: herpatic lesions of the skin; settings: topical; cited from earlier work
bone marrow = settings: cited from earlier work
nucleotidases = settings: systemic administration; cited from earlier work
[11] = 50 micromolar, vs untreated control
[12] = Human alphaherpesvirus 1, 5 μM, read-out: plaque-forming units as % of control
[13] = Human alphaherpesvirus 1, read-out: plaque-forming units as % of control
[14] = 40 mg/kg oral, 2 × 21/2, 72 hours after implant
[15] = 40 mg/kg oral, 2 × 21/2, innoculation dose 1 × 10^6 PFU

Molecule `Cc1cnc(=O)n(C2C[C@H](O)[C@@H](CO)O2)c1` (stereo in doubt) [methyl compound, 1-(2-Deoxy-α-D-ribofuranosyl)-5-(methyl)-2-pyrimidinone] has an inhibition at 50 µM (HSV-1; [11]) of 95.5%, an inhibition at 100 µM (HSV-1; 100 micromolar) of 99% and an inhibition at 50 µM (HSV-2; [11]) of 87.9%. The inhibition at 100 µM (HSV-2; 100 micromolar) was 98.3%.

In the case of `O=c1ncc(Br)cn1[C@@H]1O[C@H](CO)[C@@H](O)[C@H]1O` [5-bromo], the “anti-tumor activity” value (murine leukemia L 1210) is given as “lack of anti-tumor activity”.

For `O=c1ncc(Cl)cn1[C@@H]1O[C@H](CO)[C@@H](O)[C@H]1O` [5-chloro], the “anti-tumor activity” value (murine leukemia L 1210) is listed as “lack of anti-tumor activity”.

For `O=c1ncc(F)cn1[C@@H]1O[C@H](CO)[C@@H](O)[C@H]1O` [5-fluoro riboside, 5-fluoro-pyrimidin-2-one riboside], the “anti-viral activity” value (virus) is given as “possessing anti-viral activity” and the “anti-tumor activity” value (murine leukemia L 1210) is given as “only the 5-fluoro was active”.

In the case of `Nc1nc2c(ncn2COCCO)c(=O)[nH]1` [ACG, acyclovir, reference compound], the activity at 5 µM (HSV-1 (KOS); [12]) is reported as 6.5%, the activity at 5 µM (PFA-resistant strains) is reported as 100% and the activity at 5 µM [1] is reported as 85%. The activity at 5 µM (HSV-1 (CLl0l); [12]) was 4%, the activity at 5 µM [2] was 100% and the activity at 5 µM [3] was 0.7%.

In the case of `O=c1[nH]c(=O)n([C@H]2C[C@H](O)[C@@H](CO)O2)cc1/C=C/Br` [BVdU, (bromovinyl) deoxyuridine, reference compound], the activity at 30 µM (HSV-1 (KOS); [13]) is reported as 0.1%, the activity at 30 µM (HSV-2 (333); Human alphaherpesvirus 2, read-out: plaque-forming units as % of control) is reported as 1.7% and the activity at 30 µM [1] is reported as 0.8%. It also gave an activity at 30 µM (HSV-1 (CLl0l); [13]) of 0.4%, an activity at 30 µM [2] of 3.7% and an activity at 30 µM [3] of 52%.

In the case of `O=c1ncc(Br)cn1[C@H]1C[C@H](O)[C@@H](CO)O1` [BrPdR, 1-(2-Deoxy-β-D-ribofuranosyl)-5-(bromo)-2-pyrimidinone], the activity at 100 µM (HSV-1 (KOS); Human alphaherpesvirus 1, 100 μM, read-out: plaque-forming units as % of control) is reported as 0.6%, the activity at 100 µM (HSV-2 (333); Human alphaherpesvirus 2, 100 μM, read-out: plaque-forming units as % of control) is reported as 4.5% and the “antiherpes / anti-viral activity (words)” value [4] is reported as “significant antiherpes activities”. It also gave an activity at 100 µM (HSV-2 (CEU-G)) of 7.1%.

In the case of `Nc1nc2c(ncn2COC(CO)CO)c(=O)[nH]1` [DHPG, Dihydroxy propoxymethyl guanine, reference compound], the Survivors/Total (HSV-2 (Strain 333) [5]; 40 mg/kg oral, 2 × 21/2) is reported as 20/20, the percent survival (HSV-2 (Strain 333) [5]; 40 mg/kg oral, 2 × 21/2) is reported as 100% and the Survivors/Total (HSV-2 (Strain 333) [5]; [14]) is reported as 5/5. The percent survival (HSV-2 (Strain 333) [5]; [14]) was 100%, the “Mean Survival Time” value (HSV-2 (Strain 333) [5]; 40 mg/kg oral, 2 × 21/2, control 9.8 ± 1.3) was greater than 45 days and the “Mean Survival Time” value (HSV-2 (Strain 333) [5]; 40 mg/kg oral, 2 × 21/2, control 10.6 ± 2.1) was greater than 45 days. For the same molecule, the Survivors/Total (HSV-2 (Strain 333) [5]; [15]) was 2/5, the percent survival (HSV-2 (Strain 333) [5]; [15]) was 40% and the “Mean Survival Time (days), of the mice that died” value (HSV-2 (Strain 333) [5]; 40 mg/kg oral, 2 × 21/2, innoculation dose 1 × 10^6 PFU, control 10.0 ± 1.2) was 20.0 ± 7.0 days. The “% ILS” value (HSV-2 (Strain 333) [5]; [15]) was 200%.

For `C#Cc1cnc(=O)n([C@H]2C[C@H](O)[C@@H](CO)O2)c1` [EPdR], the Survivors/Total (HSV-2 (Strain 333) [5]; 100 mg/kg IP, 1 × 5) was 1/5, the percent survival (HSV-2 (Strain 333) [5]; 100 mg/kg IP, 1 × 5) was 20% and the “Mean Survival Time (days), of the mice that died” value (HSV-2 (Strain 333) [5]; 100 mg/kg IP, 1 × 5, control 9.6 ± 1.1) was 9.0 ± 0.8 days. The “% ILS” value (HSV-2 (Strain 333) [5]; 100 mg/kg IP, 1 × 5) was 94%.

In the case of `O=c1ncc(F)cn1[C@H]1C[C@H](O)[C@@H](CO)O1` [FPdR, 1-(2-Deoxy-β-D-ribofuranosyl)-5-fluoro-2-pyrimidinone], the “anti-viral activity” value (virus) is given as “exhibiting anti-viral activity”, the “toxicity to the host cell versus virus” value (host cell) is given as “more toxic to the host cell than to the virus” and the “toxicity against the host cells” value [6] is given as “significantly greater than IPdR”. For the same molecule, the “toxicity against the host cells” value ([6]; listed as 5-fluoro deoxyriboside) was “more toxic to the host than to the virus”, the activity at 72 h, 1 µM ([7]; 1.0 μm, read-out: % Growth) was 102% and the activity at 72 h, 10 µM ([7]; 10 μm, read-out: % Growth) was 84%. For the same molecule, the activity at 72 h, 25 µM ([7]; 25 μm, read-out: % Growth) was 49%, the activity at 72 h, 50 µM ([7]; 50 μm, read-out: % Growth) was 21% and the IC50 at 72 h ([7]; cytotoxicity, read-out: ID50) was 25 µM. For the same molecule, the “antiviral activity, comparison of IPdR and FPdR” value (HSV-2 (strain 333) [8]) was “comparable in antiviral activity” and the inhibition at 100 µM (HSV-2 (strain 333) [8]; Human alphaherpesvirus 2, Vero, 100 μM, 48 hours) was 50.5%.

In the case of `O=c1[nH]c(=O)n([C@H]2C[C@H](O)[C@@H](CO)O2)cc1I` [idoxuridine, 5-iodo-2'-deoxyuridine], the “disappearance of most of the active form from the blood” value [9] is listed as “about thirty”, the “response of herpatic lesions of the skin” value [10] is listed as “do not respond” and the “toxicities upon systemic administration” value (bone marrow) is listed as “bone marrow depression”. For the same molecule, the “inactivation by nucleotidases” value (nucleotidases) was “rapidly inactivated by nucleotidases”.
